# Values joined by “and” are separate entries in the source; they are usually repeats but may differ in a detail not shown here. Equal entries are not always repeated. Marks after values point to notes of the source that are not given here.
# Tests used:
# [1] = biological target: T1, Acetylcholinesterase from Electrophorus electricus (Electrophorus electricus, UniProt O42275); assay: Acetylcholinesterase inhibition assay (Ellman, ATCI substrate); type: biochemical
# T1 construct: purchased Sigma Aldrich (Shanghai, China)
# Source text: (§1) Acetylcholinesterase from Electrophorus electricus, alphaglucosidase from Saccharomyces cerevisiae, and xanthine oxidase from bovine milk were obtained from Sigma Aldrich (Shanghai, China). The other reagents used in the bioassays were purchased either from Solarbio or Sigma Aldrich. Analytical reagent grade organic solvents for extraction were purchased from XL Xilong Scientific Chemical. Silica gel plates (Silica gel 60 F254 0.2 mm layer thickness) were purchased from Merck (KGaA, Darmstadt, Germany). A spectrometer (Thermo Scientific Multiskan GO, Vantaa, Finland) was used for all measurements of AChE, AG and XO inhibitory activities. The venom was extracted and collected manually from the adult specimens of B. asper snakes from Colombia (South America) that were held captive in the Serpentarium at University of Antioquia. The venom was centrifuged, and the supernatant was lyophilized and frozen at −70 °C until its use.
# AChE inhibition was determined according to the method of Ellman with ATCI as substrate. […] The control contained all components except the tested extract. The inhibitory rate was calculated as the formula: %I = [1 − (ODs−OD sample sb)/ODn-ODnb] × 100%; where: ODn is the absorbance value of the sample system in which sample is substituted by PBS, ODnb is the absorbance value of ODn in which no AChE was added, ODsb is the absorbance of ODs in which no AchE was added.
# [2] = biological target: T2, alphaglucosidase from Saccharomyces cerevisiae (Saccharomyces cerevisiae, UniProt P53341); assay: Alphaglucosidase inhibition assay (pNPG); type: biochemical; settings: for inhibitory activity for the enzyme AG (in words): at any of the tested doses (3.125-50 µg/mL)
# T2 construct: purchased Sigma Aldrich (Shanghai, China)
# Source text: as §1
# The AG inhibition activity was evaluated by measuring the release of p-nitrophenol from p nitrophenyl-α-D-glucopyranoside (pNPG) following the protocol proposed by Pistia-Brueggemann, with modifications. […] The control (C-) contained all the reagents but the sample was substituted by PBS. […] The inhibitory rate was calculated as the formula: %I = [1 − (ODs − OD sample sb)/ODn-ODnb] × 100%; where: ODn is the absorbance value of the sample system in which sample is substituted by PBS, ODnb is the absorbance value of ODn in which no AG was added, ODsb is the absorbance of ODs in which no AG was added.
# [3] = biological target: T3, xanthine oxidase from bovine milk (Bos taurus, UniProt P80457); assay: Xanthine oxidase inhibition assay; type: biochemical
# T3 construct: purchased Sigma Aldrich (Shanghai, China); host or cells: bovine milk
# Source text: as §1
# The assay was based on the developed method of Valentao [56] and modified for application in microplates by Lopez-Cruz. All test samples were dissolved in a 50 mM phosphate buffer to simulate the environment in which the reaction occurs in the body. […] The control contained all components except the sample. The inhibitory rate was calculated as the formula: %I = [1 − (ODs − OD sample sb)/ODn-ODnb] × 100%; where: ODn is the absorbance value of the sample system in which sample is substituted by PBS, ODnb is the absorbance value of ODn in which no XO was added, ODsb is the absorbance of ODs in which no XO was added.
# B. asper venom [4] = assay: Inhibition of proteolytic activity of venom on azocasein; type: biochemical, Bothrops asper; settings: 3 µg venom per well
# Source text: as §1
# The proteolytic activity was measured on azocasein (Sigma Aldrich, St. Lous, MO, USA) according to Wang with some modifications. […] The supernatant (100 μL) was mixed with an equal volume of 0.5 M NaOH, and the absorbance was measured at 450 nm. Results are shown as percentage of activity (absorbance at 450 nm). […]
# [5] = system: Metalloproteinase (Batx-I); assay: Inhibition of proteolytic activity of isolated metalloproteinase on azocasein; type: biochemical, Bothrops atrox; settings: 3 µg toxin per well
# Protocol: (§2) Batx-I was isolated from Bothrops atrox according to the protocol of Patiño. Purification was done by ion-exchange chromatography (CM Sephadex C25) and the toxin purity was tested by RP-HPLC and SDS PAGE. PLA2 was isolated from Crotalus durissus cumanensis according to the protocol of Pereañez. PLA2 was purified by RP-HPLC on C-18 column eluted at 1.0 mL/min with a gradient from 0% to 100% acetonitrile in 0.1% trifluoroacetic acid (v/v). Absorbance was monitored at 215 nm. Batx-I and Cdcum6 were lyophilized and stored at −20 °C until their use.
# The proteolytic activity was measured on azocasein (Sigma Aldrich, St. Lous, MO, USA) according to Wang with some modifications. Briefly, 3 µg of B. asper venom or Batx-I were dissolved in 5 μL of 25 mM Tris (0.15 M NaCl, 5 mM CaCl2), pH 7.4, and were mixed with different doses of indole in order to obtain 1:20, 1:10 and 1:5 w/w ratios, respectively. Mixes were pre-incubated for 30 min at 37 °C. Later, these solutions were incubated with 10 mg/mL of azocasein diluted in the same buffer. After an incubation of 90 min at 37 °C, the reaction was stopped by the addition of 200 μL of trichloroacetic acid. The samples were then centrifuged at 3000 rpm for 5 min. The supernatant (100 μL) was mixed with an equal volume of 0.5 M NaOH, and the absorbance was measured at 450 nm. Results are shown as percentage of activity (absorbance at 450 nm). […]
# B. asper venom [6] = assay: Inhibition of coagulant activity of venom (plasma clotting time); type: biochemical, Bothrops asper
# Protocol: The method described by Theakston and Reid was followed, with small modifications. Briefly, 1.0 µg of B. asper dissolved in 25 µL PBS were mixed with 75 µL of different concentrations of indole, and pre-incubated for 30 min at 37 °C. After, 100 µL of mixtures were added to 0.2 mL of plasma, and the time required for plasma coagulation was determined.
# [7] = system: Phospholipase A2 (Cdcum6); assay: Inhibition of PLA2 activity with 4N3OBA substrate; type: biochemical, Crotalus durissus cumanensis
# Protocol: as §2
# The inhibitory effect of indole on the PLA2 of snake venom was assessed by two methods; the first of them, using monodispersed substrate 4N3OBA (manufactured by BIOMOL, Hamburg Germany) according to the method described by Holzer and Mackessy and adapted for a 96-well ELISA plate. […] The inhibitory effect of indole on PLA2 activity was determined through pre-incubation of the enzyme with each concentration of the compound for 30 min at 37 °C. After the incubation period, the sample was added to the assay and the reaction was monitored at 425 nm for 40 min at 37 °C. The quantity of chromophore released (4-nitro-3-hydroxy benzoic acid) was proportional to the enzymatic activity. […]
# B. asper venom [8] = assay: Inhibition of indirect hemolytic activity (agarose-erythrocyte-egg yolk gels); type: biochemical, Bothrops asper; settings: at tested doses
# Protocol: The second method to evaluate the inhibitory effect of indole on PLA2, was determining the inhibition of the indirect hemolytic activity. This was evaluated in agarose-erythrocyte-egg yolk gels according to Gutierrez. It used a minimum indirect hemolytic dose (MIHD) of B. asper venom of 2.2 μg, defined as the amount of venom that induced a 20 mm diameter hemolytic halo. Venom and different doses of indole were preincubated for 30 min at 37 °C and the inhibitory potential was measured after 20 h of plate incubation at 37 °C. This experiment was done in triplicate.
# [9] = dose 50 µg/mL, listed as indole
# T3 sequence (P80457 whole entry): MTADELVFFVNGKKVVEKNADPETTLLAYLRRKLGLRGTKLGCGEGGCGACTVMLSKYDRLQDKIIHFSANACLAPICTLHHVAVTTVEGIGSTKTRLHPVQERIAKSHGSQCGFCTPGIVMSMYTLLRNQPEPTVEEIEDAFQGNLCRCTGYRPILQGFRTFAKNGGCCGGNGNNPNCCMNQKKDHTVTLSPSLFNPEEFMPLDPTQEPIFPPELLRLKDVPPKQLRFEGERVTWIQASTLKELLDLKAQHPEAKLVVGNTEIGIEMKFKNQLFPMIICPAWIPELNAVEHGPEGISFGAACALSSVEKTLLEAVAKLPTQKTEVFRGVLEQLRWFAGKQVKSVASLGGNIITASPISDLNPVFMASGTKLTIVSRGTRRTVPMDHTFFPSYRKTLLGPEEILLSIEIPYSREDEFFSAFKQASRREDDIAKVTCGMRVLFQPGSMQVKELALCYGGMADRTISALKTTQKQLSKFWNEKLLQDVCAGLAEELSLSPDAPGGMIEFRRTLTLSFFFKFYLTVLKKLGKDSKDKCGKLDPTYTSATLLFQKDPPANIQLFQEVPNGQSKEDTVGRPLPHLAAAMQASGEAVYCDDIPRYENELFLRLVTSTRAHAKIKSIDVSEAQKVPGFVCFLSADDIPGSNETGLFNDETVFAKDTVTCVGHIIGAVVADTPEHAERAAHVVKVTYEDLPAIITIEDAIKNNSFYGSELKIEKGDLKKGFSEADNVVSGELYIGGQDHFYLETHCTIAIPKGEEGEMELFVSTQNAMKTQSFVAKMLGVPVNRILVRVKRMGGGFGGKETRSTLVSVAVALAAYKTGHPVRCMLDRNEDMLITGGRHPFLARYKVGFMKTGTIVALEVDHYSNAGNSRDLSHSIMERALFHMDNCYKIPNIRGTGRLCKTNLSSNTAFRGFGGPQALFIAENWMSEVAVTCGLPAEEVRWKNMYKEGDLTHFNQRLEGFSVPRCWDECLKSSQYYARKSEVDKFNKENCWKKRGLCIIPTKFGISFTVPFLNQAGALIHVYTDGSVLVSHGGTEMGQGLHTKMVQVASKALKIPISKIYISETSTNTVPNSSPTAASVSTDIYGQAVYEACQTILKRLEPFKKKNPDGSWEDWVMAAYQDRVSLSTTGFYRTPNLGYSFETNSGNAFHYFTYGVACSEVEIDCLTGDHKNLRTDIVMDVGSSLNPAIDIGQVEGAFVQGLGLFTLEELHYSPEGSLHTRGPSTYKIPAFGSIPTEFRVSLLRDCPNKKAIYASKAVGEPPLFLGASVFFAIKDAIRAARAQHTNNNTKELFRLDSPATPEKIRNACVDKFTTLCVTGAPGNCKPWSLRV
# T2 sequence (P53341 whole entry): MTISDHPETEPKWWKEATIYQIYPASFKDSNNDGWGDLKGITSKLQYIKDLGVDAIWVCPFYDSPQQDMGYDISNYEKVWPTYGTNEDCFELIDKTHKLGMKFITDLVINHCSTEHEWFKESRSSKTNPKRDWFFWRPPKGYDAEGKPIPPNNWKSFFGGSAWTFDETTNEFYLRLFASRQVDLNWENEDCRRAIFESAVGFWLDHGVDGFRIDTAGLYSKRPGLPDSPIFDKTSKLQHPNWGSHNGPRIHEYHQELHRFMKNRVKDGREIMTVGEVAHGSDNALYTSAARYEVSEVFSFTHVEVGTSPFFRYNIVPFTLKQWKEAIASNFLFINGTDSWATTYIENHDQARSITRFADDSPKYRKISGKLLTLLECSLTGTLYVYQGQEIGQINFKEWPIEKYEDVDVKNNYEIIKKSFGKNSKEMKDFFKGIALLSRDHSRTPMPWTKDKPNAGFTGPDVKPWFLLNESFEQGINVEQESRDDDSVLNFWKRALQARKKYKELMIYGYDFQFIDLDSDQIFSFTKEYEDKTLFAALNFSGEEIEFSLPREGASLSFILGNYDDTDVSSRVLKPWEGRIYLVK
# T1 sequence (O42275 24-633): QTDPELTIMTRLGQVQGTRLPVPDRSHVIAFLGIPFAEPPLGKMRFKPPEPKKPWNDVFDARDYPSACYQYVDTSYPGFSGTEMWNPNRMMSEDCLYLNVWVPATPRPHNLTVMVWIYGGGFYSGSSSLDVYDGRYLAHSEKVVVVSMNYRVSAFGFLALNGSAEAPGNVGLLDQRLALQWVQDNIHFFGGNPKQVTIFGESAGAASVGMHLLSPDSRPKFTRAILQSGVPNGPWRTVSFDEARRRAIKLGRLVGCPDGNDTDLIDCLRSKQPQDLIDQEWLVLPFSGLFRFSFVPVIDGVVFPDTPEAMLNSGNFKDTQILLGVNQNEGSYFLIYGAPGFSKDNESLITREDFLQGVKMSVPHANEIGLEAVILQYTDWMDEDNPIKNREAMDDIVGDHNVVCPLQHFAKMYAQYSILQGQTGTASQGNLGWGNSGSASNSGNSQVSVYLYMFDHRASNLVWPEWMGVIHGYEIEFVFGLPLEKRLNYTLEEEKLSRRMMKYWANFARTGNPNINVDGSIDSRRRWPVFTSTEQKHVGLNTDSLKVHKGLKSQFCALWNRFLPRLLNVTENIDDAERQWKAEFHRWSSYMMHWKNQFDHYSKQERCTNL
SMILES,AChEI% ([1]; dose 3.125 µg/mL),AChEI% ([1]; dose 6.25 µg/mL),AChEI% ([1]; dose 25 µg/mL),AChEI% ([1]; dose 50 µg/mL),inhibitory activity for the enzyme AG (in words) [2],AGI% ([2]; dose 3.125 µg/mL),AGI% ([2]; dose 6.25 µg/mL),AGI% ([2]; dose 25 µg/mL),AGI% ([2]; dose 50 µg/mL),IC50 [3],XOI% ([3]; dose 3.125 µg/mL),XOI% ([3]; dose 6.25 µg/mL),XOI% ([3]; dose 25 µg/mL),XOI% ([3]; dose 50 µg/mL),IC50 [1],other results
O=Cc1c[nH]c2ccccc12 [1H-indole-3-carboxaldehyde],0%,0%,0%,0%,no inhibitory activity,0%,0%,0%,0%,13.4 ± 0.39 µM,61.14% and 61.14 ± 0.14 %,67.69% and 67.69 ± 0.34 %,86.49% and 86.49 ± 0.89 %,100% and 100 *** %,–,–
O=Cc1ccc(O)cc1 [4-hydroxybenzaldehyde],0%,4.21 ± 0.01%,14.26 ± 0.011%,25.7% and 25.7 ± 0.56%,no inhibitory activity,0%,0%,0%,0%,506 ± 16 µM,17.39 ± 0.49%,25.27 ± 0.19%,31.67 ± 0.52%,50.75% and 50.75 ± 0.50%,6890 ± 118 µM,–
"c1ccc2[nH]ccc2c1 [Indole, indole]",0%,9.42 ± 0.07%,37.54 ± 1.26%,51.3 ± 1.67 %,–,51.43 ± 1.06 %,81.49 ± 1.17 %,94.4 ± 1.01 %,100 *** %,843 ± 16.7 µM,15.01 ± 0.31%,17.77 ± 0.52%,25.17 ± 0.65%,44.30 ± 1.14%,335 ± 13.1 µM,"AChEI% [1, 9]: 51.3%; AGI% ([2]; dose 3.125 µg/mL, listed as indole): 51.43%; AGI% ([2]; dose 6.25 µg/mL, listed as indole): 81.49%; AGI% ([2]; dose 25 µg/mL, listed as indole): 94.4%; IC50 ([2]; read-out: AG (IC50 µM)): 18.7 ± 1.1 µM; XOI% [3, 9]: 44.3%; proteolytic activity inhibition of B. asper venom (in words) (B. asper venom [4]; venom:compound ratio 1:10): weak inhibition without significance; proteolytic activity inhibition of B. asper venom (B. asper venom [4]; venom:compound ratio 1:20 w/w): 77.9% ± 5.5; inhibition of proteolytic activity of metalloprotease ([5]; toxin:compound ratio 1:5, not significant): 4.31 ± 1.9; inhibition of proteolytic activity of metalloprotease ([5]; toxin:compound ratio 1:10): 13.54 ± 2.5; coagulant activity of the compound by itself (in words) (B. asper venom [6]; compound alone, after half an hour of incubation): did not generate coagulant activity; inhibition of the coagulating effect in vitro (in words) (B. asper venom [6]; induced by 1.0 µg of venom): significant in vitro inhibition; maximum delay time for clotting onset (clotting time) (B. asper venom [6]; venom:compound ratio 1:20 w/w, 1.0 µg venom, venom alone 21.6 ± 0.8 s): 99 ± 4.0 s; inhibition of PLA2 activity (given as proteolytic activity inhibition) ([7]; toxin:compound ratio 1:10): 10.0%; inhibition of PLA2 activity (given as proteolytic activity inhibition) ([7]; toxin:compound ratio 1:20): 15.20%; inhibition of the indirect hemolytic activity of the complete venom (in words) (B. asper venom [8]): did not show inhibition"
